Laboratory results: PMC3223730, “A nuclear magnetic resonance based approach to accurate functional annotation of putative enzymes in the methanogen Methanosarcina acetivorans” (BMC Genomics, 2011)

Key:
MA3706 = target: T1, MA3706 (Methanosarcina acetivorans, UniProt Q8TJS1); test: isothermal titration calorimetry; assay type: binding; conditions: read-out: dissociation constant
T1 construct: gene MA_3706; removal not described), expressed in E. coli BL21(DE3) Rosetta, Ni-NTA purified

MA4265 = target: T2, MA4265 (Methanosarcina acetivorans, UniProt Q8TI91); test: waterLOGSY 1H NMR; assay type: binding; conditions: 300 μM ligand, 30 μM protein; 50 mM sodium phosphate, 100 mM NaCl, pH 7.0; 5 or 25 °C
T2 construct: gene MA_4265; removal not described), expressed in E. coli at 25°C, Ni-NTA purified
T2 sequence (Q8TI91 1-342): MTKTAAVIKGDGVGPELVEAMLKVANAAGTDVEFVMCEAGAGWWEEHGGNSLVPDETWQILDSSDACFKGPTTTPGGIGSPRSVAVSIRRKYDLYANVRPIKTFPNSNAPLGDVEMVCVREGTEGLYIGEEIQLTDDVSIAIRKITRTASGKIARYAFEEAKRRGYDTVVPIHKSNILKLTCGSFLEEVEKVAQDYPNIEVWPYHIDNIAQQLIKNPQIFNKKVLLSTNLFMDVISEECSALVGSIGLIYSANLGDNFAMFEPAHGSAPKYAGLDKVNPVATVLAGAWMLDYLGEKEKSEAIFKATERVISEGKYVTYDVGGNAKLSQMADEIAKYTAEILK

T1 sequence (Q8TJS1 whole entry): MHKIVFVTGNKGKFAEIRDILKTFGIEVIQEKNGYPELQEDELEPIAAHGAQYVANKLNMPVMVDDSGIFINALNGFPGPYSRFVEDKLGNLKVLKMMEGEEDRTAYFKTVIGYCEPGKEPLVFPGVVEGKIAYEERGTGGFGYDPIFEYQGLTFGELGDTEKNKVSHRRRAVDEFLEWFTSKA

**Q.** With O=P(O)(O)OP(=O)(O)OP(=O)(O)OC[C@H]1O[C@@H](n2cnc3c(O)ncnc32)[C@H](O)[C@@H]1O [ITP] as the compound, how does the Kd (MA3706) read?
**A.** 7.8 µM

**Q.** With O=C(O)C[C@H](C(=O)O)[C@@H](O)C(=O)O [isocitrate] as the compound, how does the “waterLOGSY 1H NMR” value (MA4265) read?
**A.** Only isocitrate binds to MA4265 under the conditions used.
